# Where a name gives a salt, the structure may show the parent alone.
# Assay: Aerated and tapped bulk density of SB-207266-A
# Assay type: physicochemical
# [1] = typical value, product of Description 2
# [2] = SB-207266-A batches from Description 1
structure (smiles),measurement,setting,value
"CCCCN1CCC(CNC(=O)c2c3n(c4ccccc24)CCCO3)CC1 [SB-207266-A, N-[(1-^nbutyl-4-piperidinyl)methyl]-3,4-dihydro-2H-[1,3]-oxazino[3,2-a]indole-10-carboxamide hydrochloride]",Aerated bulk density,[1],ca. 0.14 g/ml
same,Tapped bulk Density,[1],ca. 0.31 g/ml
CCCCN1CCC(CNC(=O)c2c3n(c4ccccc24)CCCO3)CC1.Cl [BDC-G-05C],Aerated bulk density,[2],0.152 g/mL
same,Tapped bulk Density,[2],0.308 g/mL
CCCCN1CCC(CNC(=O)c2c3n(c4ccccc24)CCCO3)CC1.Cl [BDC-H-01C],Aerated bulk density,[2],0.136 g/mL
same,Tapped bulk Density,[2],0.250 g/mL
CCCCN1CCC(CNC(=O)c2c3n(c4ccccc24)CCCO3)CC1.Cl [BDC-G-03C],Aerated bulk density,[2],0.173 g/mL
same,Tapped bulk Density,[2],0.339 g/mL
CCCCN1CCC(CNC(=O)c2c3n(c4ccccc24)CCCO3)CC1.Cl [BDC-G-02C],Aerated bulk density,[2],0.142 g/mL
same,Tapped bulk Density,[2],0.300 g/mL
CCCCN1CCC(CNC(=O)c2c3n(c4ccccc24)CCCO3)CC1.Cl [BDC-G-04C],Aerated bulk density,[2],0.146 g/mL
same,Tapped bulk Density,[2],0.310 g/mL

# — patent publication US20050075335A1, “Pharmaceutical composition comprising n((1-n-butyl-4-piperidinyl)methyl)-3,4-dihydro-2h-(1,3)oxazino(3,2-a)indole-10-carboxamide or salt and process therefor comprising dry granulation” (priority 2002, published 2005)
